“Also recorded” adds a separate entry of the source.
Assay: Photostability test in Q-Sun Xenon Test Chamber (accelerated photodegradation), LC/MSD quantitation
Assay type: physicochemical
Details: for percent Compound 1 remaining: 10 ppm; for effect of sorbate on photostability: 250 ppm potassium sorbate versus no photostabilizer; for effect of sorbate on photostability / rate of degradation, trend with pH: 10 ppm Compound 1 or 5 ppm Compound 2; for rate of degradation, trend with pH: no photostabilizer, pH 2.8, 4.0, 5.0, 7.1; for percent Compound 2 remaining: 5 ppm
Experimental: Aqueous buffer solution at pH 7.1 contains 50 mM potassium dihydogen phosphate and ˜32 mM sodium hydroxide (solutions of 1.0 M hydrochloric acid and 1.0 M sodium hydroxide are used to adjust pH). Aqueous buffer solution at pH 4.0 contains 50 mM citric acid monosodium salt and ˜7.4 mM sodium hydroxide (solutions of 1.0 M hydrochloric acid and 1.0 M sodium hydroxide are used to adjust pH). Aqueous buffer solution at pH 2.8 contains 50 mM citric acid and ˜16 mM sodium hydroxide (solutions of 1.0 M hydrochloric acid and 1.0 M sodium hydroxide are used to adjust pH). Aqueous buffer solution at pH 5.0 contains 50 mM acetic acid and ˜32 mM sodium hydroxide (solutions of 1.0 M hydrochloric acid and 1.0 M sodium hydroxide are used to adjust pH). All the buffers also contained 30 ppm ethylenediaminetetraacetic acid (EDTA).
The stock solutions of the test compounds at 10 mM for compound I and at 2000 ppm for compound II are made by dissolving the compounds in ethanol and water with 0.2% sodium bicarbonate, respectively. The solutions of the stabilizers are made by dissolving the materials in the aqueous buffers. The stock solutions are then diluted to 5 or 10 ppm with the stabilizer solutions to prepare the test solution and 10-mL aliquots of the solutions are transferred to 20-mL clear glass vial for testing.
Accelerated photodegradation was studied using a Q-Sun Xenon Test Chamber (Q-Lab Model No. Xe-1-SC) at an irradiance setting of 350 mW/m^2 at 340 nm and temperature of 25 degrees Celsius. To put this in perspective, 24 hours of constant Q-Sun irradiation at these settings is approximately equivalent to 12.4 days of direct sunlight in the southwestern United States. At 0, 1, 2, 4, 6 and 24 hours from the beginning of the radiation, a 0.4-mL aliquot from each vial is pippeted out to a 1-mL glass insert for analysis.
The samples are analyzed using an Agilent 1290 LC/MSD equipped with a diode-array detector (DAD). The peak areas from the MSD chromatograms are used for quantitation, and the photostability is shown by plotting the percentages of the test compound which remains intact at all time points. The peak areas from the DAD chromatograms are used for quantitation for stabilizers with concentration at […] or higher. The instrument conditions are listed below. • Column: Water Acquity HSS T3 C18 1.8 μm, 2.1×30 mm • Column Temperature: 30° C. • Auto-sampler Temperature: Room temperature • Mobile Phase A: 0.1% formic acid in water • Mobile Phase B: 0.1% formic acid in acetonitrile • Gradient: 0-1 min, linear gradient 5-50% B; 1.0-1.2 min, linear gradient 50-100% B; 1.2-2.0 min, 100% B; flow rate is 1.2 mL/min, and Post time is 0.5 min. • Injection volume: 10 uL • MSD ion source: APCI • MSD Signal settings: Positive, selected ion monitoring (SIM) at the mass of the expected molecular ions. • UV detection wavelength: 230 nm. • MSD detection start time: 0.65 min
(§1) A Q-Sun Xenon Test Chamber (Q-Lab Model No. Xe-1-SC), which reproduces the entire spectrum of natural sunlight, was used to study the photostability of Compound 1 in various mediums (with or without photostabilizers). The equivalent sunlight exposure time for 24 hours in the Q-Sun at a constant temperature of 25° C. and irradiance of 450 mW/m^2 @ 340 nm is estimated to be equivalent to approximately 15.9 days of direct sunlight in the Southwestern United States.
as §1, with “Compound 2” for “Compound 1”

[1] = 250 ppm potassium sorbate, pH 4.0, after 4 hours exposure
[2] = absence of photostabilizer, pH 7.1, after 4 hours exposure
[3] = absence of sorbate, pH 2.8, after 4 hours exposure
[4] = absence of sorbate, pH 4.0, after 4 hours exposure

Row | percentage of Compound 1 remaining (10 ppm Compound 1, no photostabilizer, all pH values (2.8, 4.0, 5.0, 7.1), after 4 hours light exposure, 25° C.) | percent Compound 1 remaining [1] | percent Compound 1 remaining [2] | percent Compound 1 remaining [3] | percent Compound 1 remaining [4] | rate of degradation, trend with pH | percentage of Compound 2 remaining (5 ppm Compound 2, no photostabilizer, all pH values (2.8, 4.0, 5.0, 7.1), after 4 hours light exposure, 25° C.) | percent Compound 2 remaining [1] | percent Compound 2 remaining (250 ppm potassium sorbate, pH 5.0, after 4 hours exposure) | percent Compound 2 remaining [2] | percent Compound 2 remaining [3] | percent Compound 2 remaining [4] | Structure (SMILES) | effect of sorbate on photostability
1 | less than 20% | about 47% | no compound remained | about 14% | about 10% | decreases with decreasing pH | – | – | – | – | – | – | CCCNC(=O)C(C)(C)COc1cccc2c1C(N)=NS(=O)(=O)N2 [Compound 1, 3-(4-Amino-2,2-dioxide-1H-benzo[c][1,2,6]thiadiazin-5-yloxy)-2′,2′-dimethyl-N-propylpropanamide] | remarkably improved stability to photo-degradation; also recorded: significantly enhances the photostability
2 | – | – | – | – | – | decreases with decreasing pH | less than 20% | about 42% | about 15% | no compound remained | about 15% | about 5% | CC(C)CC(=O)N1CCC[C@H](COc2cccc3c2C(N)=NS(=O)(=O)N3)C1 [Compound 2, (S)-1-(3-(((4-amino-2,2-dioxido-1H-benzo[c][1,2,6]thiadiazin-5-yl)oxy)methyl)piperidin-1-yl)-3-methylbutan-1-one] | remarkably improved stability to photo-degradation; also recorded: significantly enhances the photostability

— US20170119033A1, “METHOD OF IMPROVING STABILITY OF SWEET ENHANCER AND COMPOSITION CONTAINING STABILIZED SWEET ENHANCER” (Senomyx, Inc., priority 2016, published 2017)
